Data from patent publication US7202239B2, “Cyclohexylphenyl carboxamides tocolytic oxytocin receptor antagonists” (Wyeth, priority 2001, dated 2007).

Each compound was assayed against human V2 vasopressin receptor subtype (Homo sapiens, UniProt P30518) (assay: Vasopressin binding in CHO cell membranes expressing human vasopressin V2 subtype receptors). Conditions: 100 nM, [3H]arginine vasopressin.
Source text: Vasopressin Binding in Chinese Hamster Ovary Cell Membranes Expressing Human Vasopressin V2 Subtype Receptors
Chinese Hamster Ovary (CHO) cells stably transfected with the human V2 subtype receptors were obtained from M. Thibonnier, Case Western Reserve University School of Medicine, Cleveland, Ohio.
A. Passaging and Amplification of Cells:
CHO cells transfected with the human vasopressin V2 subtype receptors obtained from M. Thibonnier (pZeoSV vector) are allowed to grow to confluency (approx. >90%) in T-150 flasks under sterile conditions, in a cell culture medium of F-12 Nutrient Mixture (HAM) with L-glutamine (Gibco Cat. # 11765-054) containing 15 mM HEPES (Gibco Cat. # 15630-080), 1% antibiotic/antimycotic (add 5 mL 100×, Gibco Cat. # 15240-062 per 500 mL F-12), 250 μg/mL Zeocin (add 1.25 mL of 100 mg/mL Invitrogen R-250-01 per 500 mL F-12) and 10% Fetal Bovine Serum (Qualified, heat inactivated, Gibco Cat. # 16140-063). The medium is removed by aspiration and the cells washed with 10 mL of Hank's Balanced Salt solution (Gibco Cat. # 14175-095). The salt solution is removed by aspiration and the cells trypsinized with 5 mL of trypsin-EDTA (0.05% trypsin, 0.53 mM EDTA-4Na, Gibco Cat. # 25300-070) for 1 min. The trypsin is removed by aspiration and the cells dislodged by tapping. Cell Culture medium (e.g. 30 mL for 1:30 split) is immediately added and mixed well to inactivate trypsin. 1 mL of detached cells is added to new culture flasks containing fresh Cell Culture medium (e.g. into 25 mL per T-150 flask), and mixed gently. The cells are incubated at 37° C. in 5% CO2. The medium is changed at 3 to 4 day interval (or as appropriate). The cells grow to confluency (approx. >75%–95%) within 7–8 days. All steps are done under sterile conditions. B. Membrane Preparation: The cells are washed twice gently with Hank's Balanced Salt solution (e.g. use 10 mL per T-150 flask). The excess solution is removed and the cells bathed for 15–30 min. in an enzyme-free Cell Dissociation Buffer (e.g. use 8 mL Hank's Based, Gibco Cat. # 13150-016 per T-150 flask) until cells are loosened. The contents are transferred to centrifuge tubes (50 mL) kept in an ice bath. All subsequent steps are done at 4° C. The tubes are centrifuged at 300× g for 15 min (1380 rpm on SORVAL, Model RT6000D, using the rotor for 50 mL tubes). The supernatant is discarded and the cells suspended in homogeneizing buffer(10 mM Tris-HCl containing 0.25 M sucrose and 1 mM EDTA, pH 7.4) ensuring that the volume of the buffer is about ten times the volume of the cell pellet. The cells are pooled into a centrifuge tube (50 mL) and homogenized with a Polytron at setting 6 for 10 sec. The homogenate is transferred into a Potter-Elvjehm homogeneizer and homogenized with 3 strokes. The homogenate is centrifuged at 1500×g for 60 min at 4° C. (3100 rpm using SORVAL, model RT6000D, using the rotor for 50 mL tubes). The pellet is discarded. The supernatant is centrifuged at 100,000×g for 60 min. at 4° C. (Beckman L8-80M ultracentrifuge; spin at 37,500 rpm with rotor type 70 Ti for 50 mL tubes; 38,000 rpm with type 80Ti for 15 mL tubes; or 35,800 rpm with rotor type 45Ti). The supernantant is discarded and the pellet suspended in 3 to 4 mL of Tris buffer (50 mM TRIS-HCl, pH 7.4). The protein content is estimated by the Bradford or Lowry method. The volume of the membrane suspension is adjusted with the membrane buffer (50 mM Tris-HCl containing 0.1% BSA and 0.1 mM PMSF) to give 3.0 mg/mL (or as appropriate) of protein. The membranes are aliquoted and stored at −70° C. C. Radioligand Binding Assay: In wells of a 96-well format microtiter plate, is added 90, 110 or 130 μL (to make up a final volume of 200 μL) of assay buffer containing 50 mM of Tris-HCl (pH 7.4), […], 1 mg % aprotinin, 1 mg % leupeptin, 2 mg % 1,10-phenanthroline, 10 mg % trypsin inhibitor, and 0.1 mM PMSF. The inhibitors are added on the day of the experiment. […]

Chain of human V2 vasopressin receptor subtype (P30518 whole entry): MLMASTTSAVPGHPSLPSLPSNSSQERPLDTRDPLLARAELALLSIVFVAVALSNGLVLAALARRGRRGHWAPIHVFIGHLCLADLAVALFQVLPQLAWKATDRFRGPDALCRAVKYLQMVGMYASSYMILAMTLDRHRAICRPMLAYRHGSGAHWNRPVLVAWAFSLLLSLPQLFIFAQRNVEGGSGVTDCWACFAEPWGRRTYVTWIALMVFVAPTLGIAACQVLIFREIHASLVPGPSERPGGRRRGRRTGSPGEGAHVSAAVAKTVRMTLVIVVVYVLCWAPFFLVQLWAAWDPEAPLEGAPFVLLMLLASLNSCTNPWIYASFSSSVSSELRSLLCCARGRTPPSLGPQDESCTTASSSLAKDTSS

V2 % inhibition at 100 nM [%]	inhibition at 0.1 µM [%]	SMILES
14	–	O=C(c1ccc2n1Cc1ccccc1N(C(=O)c1ccc(C3CCCCC3)cc1)C2)N1CCN(CCO)CC1 [Example 48, [10-(4-Cyclohexyl-benzoyl)-10,11-dihydro-5H-pyrrolo[2,1-c][1,4]benzodiazepin-3-y][4-(2-hydroxyethyl)-1-piperazinyl]methanone]
–	10	O=C(NCCc1ccccn1)c1ccc2n1Cc1ccccc1N(C(=O)c1ccc(C3CCCCC3)cc1)C2 [Example 49, 10-(4-Cyclohexyl-benzoyl)-N-[2-(2-pyridinyl)ethyl]-10,11-dihydro-5H-pyrrolo[2,1-c][1,4]benzodiazepine-3-carboxamide]
–	15	O=C(NCc1ccccn1)c1ccc2n1Cc1ccccc1N(C(=O)c1ccc(C3CCCCC3)cc1)C2 [Example 50, 10-(4-Cyclohexyl-benzoyl)-N-(2-pyridinylmethyl)-10,11-dihydro-5H-pyrrolo[2,1-c][1,4]benzodiazepine-3-carboxamide]
–	7	O=C(NCc1cccnc1)c1ccc2n1Cc1ccccc1N(C(=O)c1ccc(C3CCCCC3)cc1)C2 [Example 51, 10-(4-Cyclohexyl-benzoyl)-N-(3-pyridinylmethyl)-10,11-dihydro-5H-pyrrolo [2,1-c][1,4]benzodiazepine-3-carboxamide]
–	8	CN(CCc1ccccn1)C(=O)c1ccc2n1Cc1ccccc1N(C(=O)c1ccc(C3CCCCC3)cc1)C2 [Example 52, 10-(4-Cyclohexyl-benzoyl)-N-methyl-N-[2-(2-pyridinyl)-ethyl]-10,11-dihydro-5H-pyrrolo[2,1-c][1,4]benzodiazepine-3-carboxamide]
–	2	O=C(NCc1ccncc1)c1ccc2n1Cc1ccccc1N(C(=O)c1ccc(C3CCCCC3)cc1)C2 [Example 53, 10-(4-Cyclohexyl-benzoyl)-N-(4-pyridinylmethyl)-10,11-dihydro-5H-pyrrolo[2,1-c][1,4]benzodiazepine-3-carboxamide]
6	–	O=C(c1ccc2n1Cc1ccccc1N(C(=O)c1ccc(C3CCCCC3)cc1)C2)N1CCN(c2ccncc2)CC1 [Example 54, [10-(4-Cyclohexyl-benzoyl)-10,11-dihydro-5H-pyrrolo[2,1-c][1,4]benzpdiazepin-3-yl][4-(4-pyridinyl)-1-piperazinyl]-methanone]
–	6	CN(CCc1ccncc1)C(=O)c1ccc2n1Cc1ccccc1N(C(=O)c1ccc(C3CCCCC3)cc1)C2 [Example 55, 10-(4-Cyclohexyl-benzoyl)-N-methyl-N-[2(4-pyridinyl)ethyl]-10,11-dihydro-5H-pyrrolo[2,1-c][1,4]benzodiazepine-3-carboxamide]
–	-2	O=C(c1ccc(C2CCCCC2)cc1)N1Cc2ccc(C(=O)n3ccnc3)n2Cc2ccccc21 [Example 56, 1H-Imidazol-1-yl-[10-(4-cyclohexyl-benzoyl)-10,11-dihydro-5H-pyrrolo[2,1-c][1,4]benzodiazepin-3-yl]-methanone]
–	4	CN(Cc1cccnc1)C(=O)c1ccc2n1Cc1ccccc1N(C(=O)c1ccc(C3CCCCC3)cc1)C2 [Example 57, 10-(4-Cyclohexyl-benzoyl)-N-methyl-N-(3-pyridinylmethyl)-10,11-dihydro-5H-pyrrolo[2,1-c][1,4]benzodiazepine-3-carboxamide]
